From patent US10111435B2, “Herbicidal compositions containing N-(1,3,4-oxadiazol-2-yl)-aryl carboxylic acid amides” (BAYER CROPSCIENCE AKTIENGESELLSCHAFT, priority 2013, dated 2018)

Experiments:
Type in all cases: in vivo
[1] = tested on: Matricaria inodora (MATIN); experiment: greenhouse post-emergence herbicidal efficacy against MATIN
Procedure: (§1) All trials whose results are shown were conducted in a greenhouse by the methodology specified below. The effect of the inventive herbicidal compositions was examined on the following harmful plants 14 and 21 days after application:
(§2) Echinochloa crus-galli (ECHCG), Eleusine indica (ELEIN), Setaria viridis (SETVI), Amaranthus retroflexus (AMARE), Chenopodium album (CHEAL), Kochia scoparia (KCHSC), Solanum nigrum (SOLNI), Avena fatua (AVEFA), Bromus sterilis (BROST), Lolium multiflorum (LOLMU), Phalaris minor (PHAMI), Poa annua (POAAN), Galium aparine (GALAP), Matricaria inodora (MATIN) and Polygonum convolvulus (POLCO).
(§3) The harmful plant seeds were sown in pots (diameter 8 cm) with sandy loam soil and germinated under optimal conditions. The inventive herbicidal compositions or the active ingredients alone were applied post-emergence to the planted pots with a spray volume of 300 L/ha. The trial was conducted in a greenhouse under optimum growth conditions. The herbicidal effects were assessed visually by comparison of untreated and treated plants. The percentages mean: 0%=no effects, 100%=the plants die off completely).
(§4) The abbreviations mean: • a.i.=active ingredient • E^C=expected value according to Colby (E^C=A+B−A×B/100) • Diff: =difference (%) of measured value from expected value (%) (measured value minus expected value)
(§5) Assessment: • measured value E is greater than E^C:->synergism (+ diff.) • measured value E equals E^C:->additive effect • measured value E is smaller than E^C:->antagonism(− diff.)

Bromus sterilis (BROST) = experiment: greenhouse post-emergence herbicidal efficacy against BROST
Procedure: as §1, §2, §3, §4, §5

Galium aparine (GALAP) = experiment: greenhouse post-emergence herbicidal efficacy against GALAP
Procedure: as §1, §2, §3, §4, §5

Poa annua (POAAN) = experiment: greenhouse post-emergence herbicidal efficacy against POAAN
Procedure: as §1, §2, §3, §4, §5

Phalaris minor (PHAMI) = experiment: greenhouse post-emergence herbicidal efficacy against PHAMI
Procedure: as §1, §2, §3, §4, §5

Avena fatua (AVEFA) = experiment: greenhouse post-emergence herbicidal efficacy against AVEFA
Procedure: as §1, §2, §3, §4, §5

[2] = tested on: Lolium multiflorum (LOLMU); experiment: greenhouse post-emergence herbicidal efficacy against LOLMU
Procedure: as §1, §2, §3, §4, §5

[3] = tested on: Polygonum convolvulus (POLCO); experiment: greenhouse post-emergence herbicidal efficacy against POLCO
Procedure: as §1, §2, §3, §4, §5

[4] = tested on: Chenopodium album (CHEAL); experiment: greenhouse post-emergence herbicidal efficacy against CHEAL; details: 21 days after application, 2 g of a.i./ha
Procedure: as §1, §2
as §3, with “completely). The percentages are used to calculate interactions between individual treatments and combination treatments according to S. R. Colby, Weeds 15, pages 20 to 22 (1967).” for “completely).”
as §4, §5

Eleusine indica (ELEIN) = experiment: greenhouse post-emergence herbicidal efficacy against ELEIN; details: Eleusine indica, post-emergence; for pest or weed control at 0.5 g/ha: 0.5 g of a.i./ha; for pest or weed control at 2 g/ha: 2 g of a.i./ha
Procedure: as §1, §2
as §3, with “completely). The percentages are used to calculate interactions between individual treatments and combination treatments according to S. R. Colby, Weeds 15, pages 20 to 22 (1967).” for “completely).”
as §4, §5

Kochia scoparia (KCHSC) = experiment: greenhouse post-emergence herbicidal efficacy against KCHSC
Procedure: as §1, §2
as §3, with “completely). The percentages are used to calculate interactions between individual treatments and combination treatments according to S. R. Colby, Weeds 15, pages 20 to 22 (1967).” for “completely).”
as §4, §5

[5] = tested on: Echinochloa crus-galli (ECHCG); experiment: greenhouse post-emergence herbicidal efficacy against ECHCG
Procedure: as §1, §2
as §3, with “completely). The percentages are used to calculate interactions between individual treatments and combination treatments according to S. R. Colby, Weeds 15, pages 20 to 22 (1967).” for “completely).”
as §4, §5

Setaria viridis (SETVI) = experiment: greenhouse post-emergence herbicidal efficacy against SETVI; details: 21 days after application
Procedure: as §1, §2
as §3, with “completely). The percentages are used to calculate interactions between individual treatments and combination treatments according to S. R. Colby, Weeds 15, pages 20 to 22 (1967).” for “completely).”
as §4, §5

[6] = 21 days after application, g of a.i./ha: A1-34 50, iodosulfuron-methyl-sodium 0.5
[7] = 14 days after application, 2 g of a.i./ha
[8] = 21 days after application, g of a.i./ha: A1-34 50, iodosulfuron-methyl-sodium 2
[9] = 21 days after application, g of a.i./ha: A1-34 200, iodosulfuron-methyl-sodium 2
[10] = 14 days after application, 0.5 g of a.i./ha
[11] = 14 days after application, 2.5 g of a.i./ha
[12] = 14 days after application, 10 g of a.i./ha
[13] = 21 days after application, g of a.i./ha: A1-13 2.5, mesosulfuron-methyl 2.5
[14] = 21 days after application, g of a.i./ha: A1-13 2.5, mesosulfuron-methyl 10
[15] = 21 days after application, g of a.i./ha: A1-13 10, mesosulfuron-methyl 10
[16] = 14 days after application, 20 g of a.i./ha
[17] = 14 days after application, 5 g of a.i./ha
[18] = 21 days after application, g of a.i./ha: A1-3 5, pinoxaden 20
[19] = 21 days after application, g of a.i./ha: A1-3 20, pinoxaden 5
[20] = 21 days after application, g of a.i./ha: A1-3 20, pinoxaden 20
[21] = 336 h, 14 days after application
[22] = 504 h, 21 days after application
[23] = 21 days after application, 0.5 g of a.i./ha
[24] = 21 days after application, 2 g of a.i./ha

Q: COC(=O)c1ccc(I)cc1S(=O)(=O)[N-]C(=O)Nc1nc(C)nc(OC)n1.[Na+] [iodosulfuron-methyl-sodium] was tested. Which Efficacy [1, 6] did it give?
A: The Efficacy was 70%.

Q: And the Efficacy (Bromus sterilis (BROST); [7])?
A: Its Efficacy is 15%.

Q: And the Efficacy (Bromus sterilis (BROST); [8])?
A: Its Efficacy is 0%.

Q: And the Efficacy (Bromus sterilis (BROST); [9])?
A: The Efficacy was 0%.

Q: And the Efficacy (Galium aparine (GALAP); [10])?
A: Its Efficacy is 30%.

Q: And the Efficacy (Galium aparine (GALAP); [6])?
A: Its Efficacy is 0%.

Q: And the Efficacy (Galium aparine (GALAP); [9])?
A: The Efficacy was 25%.

Q: What about the Efficacy (Poa annua (POAAN); [10]) of the same molecule?
A: Its Efficacy is 0%.

Q: And the Efficacy (Poa annua (POAAN); [7])?
A: The Efficacy was 20%.

Q: And the Efficacy (Phalaris minor (PHAMI); [10])?
A: The Efficacy was 10%.

Q: And the Efficacy (Avena fatua (AVEFA); [9])?
A: Its Efficacy is 5%.

Q: And the Efficacy [2, 10]?
A: The Efficacy was 0%.

Q: What about the Efficacy [2, 7] of the same molecule?
A: The Efficacy was 30%.

Q: And the Efficacy [3, 10]?
A: Its Efficacy is 15%.

Q: What about the Efficacy [3, 7] of the same molecule?
A: The Efficacy was 30%.

Q: What about the Efficacy [3, 6] of the same molecule?
A: The Efficacy was 0%.

Q: What about the Efficacy [3, 8] of the same molecule?
A: The Efficacy was 0%.

Q: How did the Efficacy [1, 11] turn out when COC(=O)c1ccc(CNS(C)(=O)=O)cc1S(=O)(=O)NC(=O)Nc1nc(OC)cc(OC)n1 [mesosulfuron-methyl] was run?
A: The Efficacy was 0%.

Q: And the Efficacy [1, 12]?
A: The Efficacy was 0%.

Q: And the Efficacy (Bromus sterilis (BROST); [13])?
A: The Efficacy was 0%.

Q: And the Efficacy (Bromus sterilis (BROST); [14])?
A: Its Efficacy is 0%.

Q: What about the Efficacy (Bromus sterilis (BROST); [15]) of the same molecule?
A: Its Efficacy is 0%.

Q: What about the Efficacy (Galium aparine (GALAP); [11]) of the same molecule?
A: The Efficacy was 30%.

Q: And the Efficacy (Galium aparine (GALAP); [12])?
A: Its Efficacy is 30%.

Q: And the Efficacy (Poa annua (POAAN); [11])?
A: Its Efficacy is 15%.

Q: What about the Efficacy (Poa annua (POAAN); [12]) of the same molecule?
A: Its Efficacy is 40%.

Q: What about the Efficacy (Poa annua (POAAN); [14]) of the same molecule?
A: Its Efficacy is 40%.

Q: What about the Efficacy (Phalaris minor (PHAMI); [11]) of the same molecule?
A: Its Efficacy is 0%.

Q: And the Efficacy (Phalaris minor (PHAMI); [12])?
A: Its Efficacy is 5%.

Q: And the Efficacy (Phalaris minor (PHAMI); [13])?
A: Its Efficacy is 0%.

Q: And the Efficacy (Phalaris minor (PHAMI); [14])?
A: The Efficacy was 5%.

Q: And the Efficacy (Phalaris minor (PHAMI); [15])?
A: The Efficacy was 5%.

Q: And the Efficacy (Avena fatua (AVEFA); [12])?
A: Its Efficacy is 5%.

Q: And the Efficacy (Avena fatua (AVEFA); [14])?
A: Its Efficacy is 0%.

Q: And the Efficacy (Avena fatua (AVEFA); [15])?
A: The Efficacy was 0%.

Q: What about the Efficacy [2, 15] of the same molecule?
A: The Efficacy was 15%.

Q: What about the Efficacy [3, 14] of the same molecule?
A: Its Efficacy is 0%.

Q: What about the Efficacy [3, 15] of the same molecule?
A: The Efficacy was 0%.

Q: Which Efficacy [1, 16] does the source give for CCc1cc(C)cc(CC)c1-c1c(OC(=O)C(C)(C)C)n2n(c1=O)CCOCC2 [pinoxaden] here?
A: The Efficacy was 0%.

Q: What about the Efficacy (Bromus sterilis (BROST); [17]) of the same molecule?
A: The Efficacy was 0%.

Q: And the Efficacy (Bromus sterilis (BROST); [16])?
A: The Efficacy was 10%.

Q: And the Efficacy (Galium aparine (GALAP); [16])?
A: Its Efficacy is 0%.

Q: And the Efficacy (Galium aparine (GALAP); [18])?
A: Its Efficacy is 0%.

Q: And the Efficacy (Galium aparine (GALAP); [19])?
A: The Efficacy was 0%.

Q: And the Efficacy (Galium aparine (GALAP); [20])?
A: Its Efficacy is 0%.

Q: And the Efficacy (Poa annua (POAAN); [17])?
A: Its Efficacy is 0%.

Q: What about the Efficacy (Poa annua (POAAN); [16]) of the same molecule?
A: Its Efficacy is 0%.

Q: What about the Efficacy (Poa annua (POAAN); [18]) of the same molecule?
A: The Efficacy was 0%.

Q: What about the Efficacy (Poa annua (POAAN); [20]) of the same molecule?
A: The Efficacy was 0%.

Q: And the Efficacy (Phalaris minor (PHAMI); [17])?
A: Its Efficacy is 10%.

Q: What about the Efficacy (Phalaris minor (PHAMI); [16]) of the same molecule?
A: Its Efficacy is 50%.

Q: What about the Efficacy (Phalaris minor (PHAMI); [19]) of the same molecule?
A: The Efficacy was 10%.

Q: And the Efficacy (Phalaris minor (PHAMI); [20])?
A: The Efficacy was 20%.

Q: And the Efficacy (Avena fatua (AVEFA); [17])?
A: Its Efficacy is 0%.

Q: What about the Efficacy (Avena fatua (AVEFA); [16]) of the same molecule?
A: Its Efficacy is 20%.

Q: What about the Efficacy [2, 16] of the same molecule?
A: The Efficacy was 85%.

Q: And the Efficacy [2, 18]?
A: The Efficacy was 80%.

Q: What about the Efficacy [2, 19] of the same molecule?
A: The Efficacy was 30%.

Q: And the Efficacy [3, 17]?
A: The Efficacy was 0%.

Q: And the Efficacy [3, 16]?
A: The Efficacy was 0%.

Q: And the Efficacy [3, 19]?
A: The Efficacy was 0%.

Q: What about the Efficacy [3, 20] of the same molecule?
A: Its Efficacy is 0%.

Q: Which results are given for CS(=O)(=O)c1ccc(C(=O)C2C(=O)CCCC2=O)c(Cl)c1COCC(F)(F)F [tembotrione]?
A: Efficacy [4]: 30%; pest or weed control at 0.5 g/ha (Eleusine indica (ELEIN); [21]): 30%; pest or weed control at 2 g/ha (Eleusine indica (ELEIN); [21]): 40%; pest or weed control at 0.5 g/ha (Eleusine indica (ELEIN); [22]): 0%; pest or weed control at 2 g/ha (Eleusine indica (ELEIN); [22]): 10%; Efficacy (Kochia scoparia (KCHSC); [7]): 20%; Efficacy (Kochia scoparia (KCHSC); [23]): 0%; Efficacy (Kochia scoparia (KCHSC); [24]): 10%; Efficacy [5, 10]: 10%; Efficacy [5, 23]: 10%; Efficacy [5, 24]: 60%; Efficacy (Setaria viridis (SETVI); 0.5 g of a.i./ha): 0%; Efficacy (Setaria viridis (SETVI); 2 g of a.i./ha): 10%
